{
  "source": "patent US10717731B2",
  "about": "“Nitrogen-containing aromatic heterocyclic compound” (MITSUBISHI TANABE PHARMA CORPORATION, priority 2015, dated 2020)",
  "data": [
    {"target": "T1, human Cyp11B1 (Homo sapiens, UniProt P15538)", "T1 sequence (P15538 25-503)": "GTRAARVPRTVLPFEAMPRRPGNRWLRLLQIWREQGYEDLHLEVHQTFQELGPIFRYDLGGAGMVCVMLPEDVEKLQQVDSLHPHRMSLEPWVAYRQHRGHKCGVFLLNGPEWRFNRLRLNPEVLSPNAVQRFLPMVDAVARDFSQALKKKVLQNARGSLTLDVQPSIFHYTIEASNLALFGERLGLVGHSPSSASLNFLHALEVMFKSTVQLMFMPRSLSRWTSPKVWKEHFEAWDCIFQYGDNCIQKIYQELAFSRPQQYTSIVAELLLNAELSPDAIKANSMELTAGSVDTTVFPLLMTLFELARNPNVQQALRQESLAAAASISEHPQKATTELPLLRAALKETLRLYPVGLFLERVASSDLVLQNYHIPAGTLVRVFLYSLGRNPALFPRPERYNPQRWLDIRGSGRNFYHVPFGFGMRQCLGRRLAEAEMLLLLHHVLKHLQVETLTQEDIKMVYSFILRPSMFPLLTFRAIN", "assay": "Selectivity: IC50 against human Cyp11B2 compared with human Cyp11B1", "assay_type": "biochemical", "details": "ratio of IC50 values (nM)", "units": {"IC50 value against human Cyp11B2 versus human Cyp11B1 (selectivity)": "times"}, "values": [
      {"smiles": "CC(C)NC(=O)CN1CCN(c2cncc(-c3ccc4cnn(C)c4c3)n2)CC1", "note": "[Example 49]", "IC50 value against human Cyp11B2 versus human Cyp11B1 (selectivity)": 100}
    ]},
    {"target": "T2, human CYP11B2 (Homo sapiens, UniProt P19099)", "T2 construct": "expressed in transfected cells; mitochondrial fraction", "T2 sequence (P19099 25-503)": "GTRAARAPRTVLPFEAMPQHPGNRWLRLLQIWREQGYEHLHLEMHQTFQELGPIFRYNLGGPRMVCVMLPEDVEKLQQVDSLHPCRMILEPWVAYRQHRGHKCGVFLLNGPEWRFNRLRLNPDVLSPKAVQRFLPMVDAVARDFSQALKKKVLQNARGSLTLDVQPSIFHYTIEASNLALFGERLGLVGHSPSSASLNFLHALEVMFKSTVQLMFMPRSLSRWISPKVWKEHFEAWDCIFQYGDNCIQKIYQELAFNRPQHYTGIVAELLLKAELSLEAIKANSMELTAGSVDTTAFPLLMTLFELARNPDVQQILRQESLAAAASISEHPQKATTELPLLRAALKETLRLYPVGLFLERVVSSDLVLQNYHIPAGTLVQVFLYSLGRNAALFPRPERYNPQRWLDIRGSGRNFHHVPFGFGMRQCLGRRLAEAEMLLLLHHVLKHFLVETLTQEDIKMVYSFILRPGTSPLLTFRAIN", "assay": "Inhibitory effect on hCYP11B2: aldosterone production in mitochondrial fraction of V79 cells stably expressing human CYP11B2, HTRF", "assay_type": "biochemical", "details": "0.5 μmol/L deoxycorticosterone, 150 μmol/L NADPH, 1.5-2 hours at room temperature", "experimental": "Experimental Example 1 (Inhibitory Effect on hCYP11B2)\nThe pcDNA3.1-human CYP11B2 plasmid was transfected into a Chinese hamster lung fibroblast V79 cell line to produce a cell line stably expressing human CYP11B2 gene.\nThe cells were cultured and grown in the Dulbecco's modified Eagle's/Ham's medium supplemented with 10% fetal bovine serum and 1% G418 disulfate solution under the environment of 37° C., 95% air, and 5% CO2, and the grown cells were harvested.\nThen, the cells were fractionated to obtain mitochondria by reference to a method described in Chabre et al. JCE & M 85 (11) 4060-68, 2000. In particular, the cells suspended in a 5 mmol/L Tris-HCl buffer (pH 7.4) containing 250 mmol/L sucrose were homogenized in a Teflon (Registered Trademark) Potter Elvehjem homogenizer, and then the suspension was centrifuged (800×g, 15 min.). The supernatant was separated and again centrifuged (10000×g, 15 min.) to obtain a pellet (mitochondrial fraction).\nThe mitochondrial fraction diluted with a buffer containing 10 mmol/L KH2PO4, 10 mmol/L Tris, 20 mmol/L KCl, 25 mmol/L sucrose, 5 mmol/L MgCl2, and 0.05% bovine serum albumin was dispensed to a 96-well plate. 0.5 μmol/L Deoxycorticosterone, 150 μmol/L NADPH and a compound of each concentration were added to each well, and incubated for 1.5-2 hours at room temperature to produce aldosterone. An amount of the produced aldosterone in the incubated solution was determined by using HTRF (Homogeneous Time Resolved Fluorescence) method.\nIC50 (nmol/L) was calculated by analyzing the aldosterone production inhibition rate (%) of each concentration of compounds by non-linear regression to a logistic curve.", "units": {"IC50": "nM"}, "values": [
      {"smiles": "CC(C)NC(=O)CN1CCN(c2cncc(-c3ccc4cnn(C)c4c3)n2)CC1", "note": "[Example 49]", "IC50": 7.5},
      {"smiles": "CC(=O)N[C@H]1CC[C@@H](NC(=O)CN2CCN(c3cc(-c4ccc(Cl)cc4)cnn3)CC2)CC1", "note": "[Example 69]", "IC50": 12},
      {"smiles": "O=C(CN1CCN(c2cc(-c3ccc(Cl)cc3)cnn2)CC1)NC1CCS(=O)(=O)CC1", "note": "[Example 70]", "IC50": 6},
      {"smiles": "CS(=O)(=O)CCN1CCC(NC(=O)CN2CCN(c3cc(-c4ccc(F)cc4)cnn3)CC2)CC1", "note": "[Example 71]", "IC50": 16},
      {"smiles": "O=C(CN1CCN(c2cc(-c3ccc(F)cc3)cnn2)CC1)NC1CCC(N2CCOCC2)CC1", "note": "(centres unmarked) [Example 72]", "IC50": 11},
      {"smiles": "CNC(=O)CN1CCC(NC(=O)CN2CCN(c3cc(-c4ccc(F)cc4)cnn3)CC2)CC1", "note": "[Example 73]", "IC50": 18},
      {"smiles": "O=C(CN1CCN(c2cc(-c3ccc(F)cc3)cnn2)CC1)NCCN1CCS(=O)(=O)CC1", "note": "[Example 74]", "IC50": 19},
      {"smiles": "COc1ccccc1-c1cnnc(N2CCN(CC(=O)N[C@H]3CC[C@@H](N(C)C)CC3)CC2)c1", "note": "[Example 75]", "IC50": 41},
      {"smiles": "COCc1ccc(-c2cnnc(N3CCN(CC(=O)N[C@H]4CC[C@@H](N(C)C)CC4)CC3)c2)cc1", "note": "[Example 76]", "IC50": 103},
      {"smiles": "Cc1ccccc1-c1cnnc(N2CCN(CC(=O)N[C@H]3CC[C@@H](N(C)C)CC3)CC2)c1", "note": "[Example 77]", "IC50": 22},
      {"smiles": "O=C(CN1CCN(c2cc(-c3ccc(F)cc3)cnn2)CC1)NC1CCN(CCO)CC1", "note": "[Example 78]", "IC50": 28},
      {"smiles": "CN(C)[C@H]1CC[C@H](NC(=O)CN2CCN(c3cc(-c4ccc(F)cc4)cnn3)CC2)CC1", "note": "[Example 79]", "IC50": 21},
      {"smiles": "CN(C)[C@H]1CC[C@H](NC(=O)CN2CCN(c3cc(-c4ccc(Cl)cc4)cnn3)CC2)CC1", "note": "[Example 80]", "IC50": 17},
      {"smiles": "CC1CC=C(c2cnnc(N3CCN(CC(=O)NC(C)C)CC3)c2)CC1", "note": "(centres unmarked) [Example 81]", "IC50": 9.1},
      {"smiles": "CC(C)NC(=O)CN1CCN(c2cc(-c3ccc4c(c3)CCO4)cnn2)CC1", "note": "[Example 82]", "IC50": 14},
      {"smiles": "CC(C)NC(=O)CN1CCN(c2cc(-c3ccc(C#N)nc3)cnn2)CC1", "note": "[Example 83]", "IC50": 102},
      {"smiles": "CC1CCC(c2cnnc(N3CCN(CC(=O)NC(C)C)CC3)c2)CC1", "note": "(centres unmarked) [Example 84]", "IC50": 32},
      {"smiles": "CC(C)NC(=O)CN1CCN(c2cc(-c3ccc(F)cc3)cnn2)CC1", "note": "[Example 85]", "IC50": 7},
      {"smiles": "CC(C)NC(=O)CN1CCN(c2cc(-c3ccc4ccccc4c3)cnn2)CC1", "note": "[Example 86]", "IC50": 8.4},
      {"smiles": "CC(C)NC(=O)CN1CCN(c2cc(-c3ccc(C(F)(F)F)cc3)cnn2)CC1", "note": "[Example 87]", "IC50": 18},
      {"smiles": "CC(C)(C)OC(=O)N1CC[C@@H](NC(=O)CN2CCN(c3cc(-c4ccc(F)cc4)cnn3)CC2)[C@H](F)C1", "note": "[Example 88]", "IC50": 7.8},
      {"smiles": "Cc1c(-c2ccc(F)cc2)cnnc1N1CCN(CC(=O)NC(C)C)CC1", "note": "[Example 92]", "IC50": 83}
    ]}
  ]
}
